How the values were obtained:
Format in all cases: in vivo, mouse
[1] = tested on: TGF-β1; test: TGF-β1 mRNA levels in tibialis anterior muscle of exercised mdx mice, RT-qPCR; settings: 1 mg/kg i.p. 3 times per week for 3 months, vs vehicle
Description: (§1) FIG. 2. Andrographolide reduced expression and activity of the pro-fibrotic cytokine, TGF-β1, in mdx mice. To augment the extent of muscle fibrosis, 3 months old mdx mice were subjected to an exercise protocol for 3 months. Along this period one group was treated with 1 mg/kg andrographolide or vehicle (i.p. injections 3 time per week, 4 animal per group). A) TGF-β1 mRNA levels, an important pro-fibrotic cytokine, were determined in tibialis anterior muscle from Wild type (WT), Vehicle-Treated mdx and andrographolide-treated mdx mice by RT-qPCR using GAPDH as reference gene. Values correspond to the mean of dCT value±SD of three independent experiments, using four mice for each experimental condition and normalized to WT levels (*, P<0.05 relative to WT mice; #, P<0.05 relative to Vehicle-treated mdx mice). B) Detection of pSmad-2 (an intracellular TGF-β1 mediator) through indirect immunofluorescence analysis in cryosections of tibialis anterior muscle from Vehicle-treated and andrographolide-treated mdx mice. Bar corresponds to 200 μm.
(§2) Control or mdx (12 weeks old) male mice of C57BL/10 ScSn strain were studied. The animals were kept at room temperature with a […] night-day cycle and fed with pellets and water ad libitum. […]

[2] = tested on: TGF-β1 canonical signaling pathway (p-Smad 2); test: pSmad-2 indirect immunofluorescence in tibialis anterior cryosections of mdx mice; settings: exercised mdx mice, 1 mg/kg i.p. 3 times per week for 3 months
Description: as §1, §2

[3] = tested on: mdx mice; test: Satellite cell graft into tibialis anterior of andrographolide pre-treated mdx mice
Description: FIG. 8. Muscle stem cell therapy with satellite cells is improved by reducing the muscle fibrosis by the treatment with andrographolide. A) 3 months old mdx mice were subjected to an exercise protocol for 4 months to augment the extent of muscle fibrosis. During this period one group was treated with andrographolide or vehicle (i.p. injections 3 time per week, 6 animal per group). 1 week after the last drug administration (7 month old mice), 500 freshly isolated satellite cells (SC) purified from WT mice were transplanted in both tibialis anterior muscle of each mdx mouse. 4 weeks after the engraftment the number of fibers expressing dystrophin and collagen I were determined by immunofluorescence on cryosections. The images are representative of 2 experimental group with 6 mice per group. B) Quantification of the data obtained in A showing the number of myofibers expressing dystrophin per tibialis anterior muscle in each case. C) The number of satellite cells (PAX-7 positive nuclei) were determined on isolated single muscle fibers from extensor digitoriumlongus muscle (EDL) in each case as indicative of the endogenous SC survival.
The isolation of single myofibers were prepared essentially as described (Kelly et al., 1995, Collins 2005), briefly extensor digitorium (EDL) and soleus muscles from 6 weeks old C57-BL10 mice were dissected and digested in 0.2% (w/v) collagenase type 1 (Sigma) in DMEM (Gibco) 4 mM L-glutathatmine (Sigma) and 1% penicillin and streptomycin solution (Sigma) for […] in a 37° C. water bath. After gentle muscle trituration only single and stretched myofibers were collected in DMEM. The myofibers were washed by serial transfers in 4 dishes (pre-coated with horse serum to prevent myofiber attachment) containing DMEM. The myofibers were finally collected in DMEM containing 10% FBS, 10% horse serum, 0.5% chick embryo extract and 5 ng/ml of FGF-2 (R&D) and cultured for 30 min in a 5% CO2 cell culture incubator.
Satellite cells were separated from the myofibers by physical trituration using the method of Collins et al (2005). Briefly, the isolated intact fibers were suspended in 10 ml of complete medium and triturated with a 19 G needle mounted on a 1 ml syringe. The suspension was sequentially passed through a 70 um and 40 um cell sieve (Falcon) to remove debris. The satellite cell suspension was centrifuged for 15 min at 450 RCF. The pellet was resuspended in physiologic serum (NaCl 0.9%). An aliquot was stained with Hoechst 1 ug/ml and cholera toxin sub unit B conjugated to Alexa Fluor 488 (Invitrogen) 1 ug/ml for 5 minutes, washed with PBS and incubated with trypan blue. The double stained cells that exclude the trypan blue were counted in a hemocytometer as viable cells. The concentration of cells was adjusted to 25 cell/μl. […]

How did the “expression of TGF-β1 (mRNA) in mdx mice” value [1] turn out when `C=C1CC[C@@H]2[C@](C)(CO)[C@H](O)CC[C@@]2(C)[C@@H]1C/C=C1/C(=O)OC[C@H]1O` [andrographolide] was run?
Its value is “reduced”.

And the “number of positive nuclei for phosphorylated smad2 protein” value [2]?
The value was “reduced”.

What about the “increase in number of dystrophin positive fibers compared to controls” value ([3]; mdx mice pre-treated with andrographolide, 500 WT satellite cells grafted per tibialis anterior, one month after transplantation) of the same molecule?
The value was 3 times.

What about the “collagen-I content after satellite cell transplantation” value ([3]; mdx mice pre-treated with andrographolide, one month after transplantation, immunofluorescence) of the same molecule?
Its value is “clear reduction”.

And the “change in number of satellite cells present on isolated EDL myofibers” value ([3]; same transplanted mdx mice, PAX-7 positive nuclei, endogenous satellite cells)?
Its value is “no changes”.

What about the “mean satellite cells per EDL myofiber” value ([3]; same transplanted mdx mice, no change between treated and untreated) of the same molecule?
Its value is 12.5 satellite cells per EDL myofiber.
